PubChem BioAssay (NCI)
Where “and” joins values, the source holds several entries; their conditions need not be identical. Equal entries are not always repeated.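 How tested: cells in 96-well plates exposed to compound for 48 hours at five concentrations. At the GI50, growth is halved. The concentration for full growth arrest is given as TGI.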

Key:
Test in all cases: NCI tumour cell line growth inhibition, 48 h
[1] = test system: LXFL 529 NSCLC
[2] = test system: SW-620 colon
[3] = test system: DMS 273 small cell lung
[4] = test system: LOX IMVI melanoma
[5] = test system: OVCAR-8 ovarian
[6] = test system: CAKI-1 renal
[7] = test system: KM12 colon
[8] = test system: MOLT-4 leukemia
[9] = test system: MCF7 breast
[10] = test system: PC-3 prostate

| SMILES | TGI [1] | TGI [2] | TGI [3] | TGI [4] | TGI [5] | TGI [6] | TGI [7] | TGI [8] | GI50 [9] [µM] | TGI [9] | GI50 [10] [µM] | TGI [10] | GI50 [5] [µM] | GI50 [6] [µM] | GI50 [7] [µM] | GI50 [8] [µM] | GI50 [2] [µM] | GI50 [4] [µM] |
| --- | --- | --- | --- | --- | --- | --- | --- | --- | --- | --- | --- | --- | --- | --- | --- | --- | --- | --- |
| CCOC(=O)C1C(NC(N)=O)N(Cc2ccccc2)C(=O)N1Cc1ccccc1 (stereo not given) | > 100 µM | > 100 µM | > 100 µM | > 100 µM | > 100 µM | > 100 µM | > 100 µM | > 100 µM | – | – | – | – | – | – | – | – | – | – |
| N#CC1(CCCCl)CCCCC1 | > 100 µM | > 100 µM | > 100 µM | > 100 µM | > 100 µM | – | > 100 µM | > 100 µM | – | – | – | – | – | – | – | – | – | – |
| Cc1ccccc1NC(=O)CC(=O)NNCC(=O)Nc1nnc(-c2ccccc2)s1 | > 100 µM | > 100 µM | > 100 µM | > 100 µM | > 100 µM | > 100 µM | > 100 µM | > 100 µM | – | – | – | – | – | – | – | – | – | – |
| Cc1ccccc1NC(=O)C1C(=O)N(c2ccccc2C)C(=O)/C1=N\NC(N)=O (stereo not given) | > 100 µM | > 100 µM | > 100 µM | – | > 100 µM | > 100 µM | > 100 µM | > 100 µM | – | – | – | – | – | – | – | – | – | – |
| CC(C)(C)C1CC[C@H]2c3c([nH]c4ccccc34)[C@H]3C(=O)N(c4ccc(F)cc4)C(=O)[C@H]3[C@H]2C1 (stereo not given in full) | 30.7 µM | 35.8 µM | 33.3 µM | 35.2 µM | 25.2 µM | 32.5 µM | 27.8 µM | 27.8 µM | – | – | – | – | – | – | – | – | – | – |
| O=[N+]([O-])c1ccc(/C=C/c2ccc(/C=C/c3ccc([N+](=O)[O-])cc3[N+](=O)[O-])cc2)c([N+](=O)[O-])c1 | > 100 µM | > 100 µM | > 100 µM | – | > 100 µM | > 100 µM | > 100 µM | > 100 µM | – | – | – | – | – | – | – | – | – | – |
| CCCCC(C(=O)C(=O)Nc1ccccc1CC)C(=O)C(C)C (stereo not given) | > 100 µM | > 100 µM | > 100 µM | > 100 µM | > 100 µM | > 100 µM | > 100 µM | > 100 µM | – | – | – | – | – | – | – | – | – | – |
| C/C(=C\c1ccccc1)C(O)C(=O)c1nc2ccc(Cl)cc2[nH]c1=O (stereo not given) | > 100 µM | > 100 µM | > 100 µM | > 100 µM | > 100 µM | > 100 µM | > 100 µM | > 100 µM | – | – | – | – | – | – | – | – | – | – |
| COC(=O)C1CC(=O)O[C@H]1c1ccc(OC)c(OC)c1 (stereo not given in full) | > 100 µM | > 100 µM | > 100 µM | > 100 µM | > 100 µM | > 100 µM | > 100 µM | > 100 µM | – | – | – | – | – | – | – | – | – | – |
| CN(C)c1ccc(/C=c2/sc3nc(=O)c(-c4ccccc4NC(=O)C(F)(F)F)nn3c2=O)cc1 | > 100 µM | > 100 µM | > 100 µM | > 100 µM | > 100 µM | > 100 µM | > 100 µM | > 100 µM | – | – | – | – | – | – | – | – | – | – |
| CN(C)c1ccc(/C=C2\CCc3ccccc3C2=O)cc1Br | > 100 µM | > 100 µM | > 100 µM | > 100 µM | > 100 µM | > 100 µM | > 100 µM | > 100 µM | – | – | – | – | – | – | – | – | – | – |
| O/N=C1/C(=C/c2ccc(OCc3ccccc3)cc2)CCCC1C(NO)c1ccc(OCc2ccccc2)cc1 (stereo not given) | > 100 µM | > 100 µM | > 100 µM | 24.5 µM | > 100 µM | 73.8 µM | > 100 µM | > 100 µM | – | – | – | – | – | – | – | – | – | – |
| CC1(C)CC(=O)C(C(=O)Nc2cccs2)=C(O)C1 | > 100 µM | > 100 µM | 82 µM | > 100 µM | > 100 µM | 43.6 µM | > 100 µM | 88.1 µM | – | – | – | – | – | – | – | – | – | – |
| O=C1NC(=O)C2C3C=CC(C12)C1C2C(=O)NC(=O)C2C31 (stereo not given) | – | > 67.4 µM and 203 µM and > 1000 µM | 250 µM | > 85.7 µM and 250 µM and > 1000 µM | 206 µM and > 1000 µM | 250 µM and > 1000 µM | 250 µM and > 1000 µM | 201 µM and 850 µM | 537 | 250 µM and > 1000 µM | 525 | 250 µM and > 1000 µM | 880 | 568 | > 1000 | 160 | – | – |
| N#Cc1c(CC(=O)O)cc(=O)n2c1[nH]c1ccccc12 | – | > 100 µM | > 100 µM | > 100 µM | > 100 µM | > 100 µM | > 100 µM | > 100 µM | – | – | – | – | – | – | – | – | – | – |
| CCC12C=C(C(=O)OC)N3c4ccccc4C4CCN(CCC1)C2C43 (stereo not given) | > 100 µM | > 100 µM | > 100 µM | > 100 µM | > 100 µM | > 100 µM | > 100 µM | > 100 µM | – | – | – | – | – | – | – | – | – | – |
| CCCCCNC(=O)CCCCCCCCCCCNC(=O)CCCCCCCCCCN1C=CC(=CC=C2C=CC(=O)C=C2)C=C1 | > 100 µM | > 100 µM | > 100 µM | > 100 µM | > 100 µM | > 100 µM | > 100 µM | > 100 µM | – | – | – | – | – | – | – | – | – | – |
| O=C1c2ccccc2-c2c1c1c(O)cccc1n2Cc1ccccc1 | – | > 100 µM | – | > 100 µM | > 100 µM | 20.8 µM | 84.9 µM | > 100 µM | 6.75 | 30.8 µM | 12.3 | 32.6 µM | 28.6 | 7.15 | 15.8 | > 100 | 38 | 10.1 |
| ON1CCc2c([nH]c3ccccc23)C1c1ccc(Cl)cc1 (stereo not given) | > 100 µM | > 100 µM | 97.4 µM | 37.4 µM | > 100 µM | – | 92.9 µM | 79.7 µM | – | – | – | – | – | – | – | – | – | – |
| O=C(O)CSc1cc(NS(=O)(=O)c2ccc(Br)cc2)c2ccccc2c1O | – | 33.7 µM | – | 12.1 µM | 11 µM | 29.4 µM | 25.7 µM | > 23.3 µM | 5.71 | 19.8 µM | 5.78 | 43.8 µM | 3.73 | 14.6 | 11.6 | 3.08 | 14.4 | 3.14 |
| Cc1ccc(-c2nc([P+](c3ccccc3)(c3ccccc3)c3ccccc3)c(N3CCOCC3)o2)cc1 | – | 11.8 µM | – | 2.44 µM | 9.5 µM | 17.1 µM | 1.82 µM | 3.27 µM | 0.316 | 2.18 µM | 0.315 | 3.72 µM | 0.505 | 5.58 | 0.368 | 0.499 | 0.467 | 0.565 |
| Nc1ccccc1C(=O)/C=C/c1ccccc1O | > 100 µM | > 100 µM | – | > 100 µM | > 100 µM | > 100 µM | > 100 µM | > 100 µM | – | – | – | – | – | – | – | – | – | – |
| Cn1cc(-c2ccc3c(c2)ncn3-c2cc(NS(=O)(=O)C3CC3)cc(-c3ccc(F)cc3F)c2)cn1 | – | > 100 µM | – | 42 µM | > 100 µM | > 100 µM | > 100 µM | > 100 µM | 4.37 | 92.6 µM | 5.97 | > 100 µM | 15.4 | 3.77 | 4.96 | 2.8 | 39.1 | 5.75 |
| O=c1c(Oc2ccc(F)cc2F)cc2cnc(NC3CCOCC3)nc2n1C1CC1 | – | > 25 µM | – | > 25 µM | > 25 µM | > 25 µM | > 25 µM | > 25 µM | > 25 | > 25 µM | > 25 | > 25 µM | > 25 | > 25 | > 25 | > 25 | > 25 | > 25 |
| CC(C)(C)C1CCC(O)(c2ccccc2)CC1 (stereo not given) | > 100 µM and 49.2 µM | > 100 µM and 40.1 µM | > 100 µM and 33.6 µM | > 100 µM and 30.3 µM | > 100 µM and 46.9 µM | – | > 100 µM and 63.6 µM | > 100 µM and 39.5 µM | – | – | – | – | – | – | – | – | – | – |
| O=C1C[C@@H]2OCC=C3C[N+]4([O-])CC[C@]56c7ccccc7N1[C@H]5[C@H]2[C@H]3C[C@@H]64 (stereo not given in full) | – | > 100 µM | – | > 100 µM | > 100 µM | > 100 µM | > 100 µM | > 100 µM | > 100 | > 100 µM | > 100 | > 100 µM | > 100 | > 100 | > 100 | > 100 | > 100 | > 100 |
| O=C1NC(=O)N(S(=O)(=O)c2cc(C(=O)Nc3ccc(Cl)cc3)c(Cl)cc2S)S(=O)(=O)N1 | – | 44.5 µM | – | 34.3 µM | 64.4 µM | 35.4 µM | 34.8 µM | 47.6 µM | 23.6 | 91.8 µM | 17.8 | 52 µM | 24.8 | 19 | 18.6 | 19.4 | 20.4 | 17 |
| Oc1c(Br)cc(Cl)cc1C(c1cc(Cl)cc(Br)c1O)C(Cl)(Cl)Cl | – | 13 µM | – | 11.4 µM | 13 µM | 8.73 µM | 9.3 µM | 9.95 µM | 2.83 | 10.9 µM | 2.11 | 8.21 µM | 2.86 | 2.09 | 2.8 | 3.32 | 3.28 | 2.97 |
| CCOC(=O)C1(C)CCC(C(=O)OC)C1=O (stereo not given) | > 100 µM | – | – | 32.9 µM | > 100 µM | > 100 µM | > 100 µM | > 100 µM | – | – | – | – | – | – | – | – | – | – |
| O=C1[C@H](Cc2ccc(O)cc2)N2C(=O)CCN(C(=O)NCc3ccccc3)[C@H]2CN1Cc1cccc2ccccc12 | – | > 55 µM | – | 14.4 µM | 13.5 µM | > 80.1 µM | 15.3 µM | 54.1 µM | 6.02 | 39 µM | 2.54 | 18.8 µM | 0.959 | 14.2 | 3.1 | 1.67 | 4.49 | 1.43 |
